Source: US9878007B2, “Syndecan peptides and polypeptides as inhibitors of vascular endothelial growth factor receptor-2 (VEGFR2) and very late antigen-4 (VLA-4)” (Wisconsin Alumni Research Foundation, priority 2015, dated 2018)

Key:
[1] = tested on: P3x63Ag8 mouse myeloma cells; test: Invasion of P3x63Ag8 myeloma cells through FN-coated filters; type: cell-based; settings: 16 hr
Procedure: (§1) FIG. 7A-B. S1ED^214-236, specific for VEGFR2 coupling to VLA-4, blocks myeloma cell invasion but not adhesion. (FIG. 7A) P3x63Ag8 mouse myeloma cells are plating on the VLA-4 ligand FN in the presence or absence of 30 uM S1ED^210-233 (SEQ ID No: 4) or S1ED^214-236 (SEQ ID No: 7) for 2.5 hr. (FIG. 7B) P3x63Ag8 myeloma cells are plated on FN-coated filters in the presence of HPSE inhibitor OGT2115, VLA-4 blocking antibody P1H4, VEGFR2 inhibitor Vandetanib or S1ED^210-233 or S1ED^214-236 and allowed to migrate through the filter for 16 hr. Small black dots are the pores in the filter.
The bottom chambers of Transwell filter chambers (8 μm pores; Corning) were coated with 40 μg/ml of FN. Cells (5×10^5 in 0.2 ml plating medium) were placed in the upper chamber and incubated for 16 hr at 37° C. in the CO2 incubator. After incubation, cells in the upper chamber were removed and cells on the bottom side of the filter were fixed in 4% paraformaldehyde (PFA) and stained with 0.1% Crystal Violet before imaging. Cells from at least five random fields were counted.

CAG myeloma cells [2] = test: Cell spreading / attachment assay of CAG myeloma cells on FN or VCAM-1; type: cell-based, human
VLA-4 = target: T1, VLA-4 (Homo sapiens, UniProt P05556+P13612); test: GST pull down assay: capture of VLA-4 by GST-S1ED; type: binding; settings: HPSE^low cell lysates; peptide 30 M [sic]
T1 construct: the α4-integrin (VLA-4), which is expressed on myeloma cells; endogenous in cells; host or cells: CAG human myeloma cells (HPSE^low), whole-cell lysate
Procedure: (§2) FIGS. 6A-G. Peptides derived from the active site in Sdc1 activate or inhibit adhesion and invasion. (FIG. 6A) Transwell migration assays towards FN (for 16 hrs) were performed for HPSE low or high cells in the presence of 0, 0.3, 3, and 30 μM of S1ED^210-240. Cells migrating to the bottom side of the filter were counted from five random images for each treatment. (FIG. 6B) The sequence of S1ED210-240 is shown (SEQ ID NO: 3), as well as […] truncation mutants of the peptide (SEQ ID NOs: 5, 2, 4 and 7). Amino acids shown in red appear necessary for the spreading and invasive activity. (FIG. 6C) Images of HPSE^low and HPSE^high cells plated on FN for 2 hr. (FIG. 6D) HPSE^low cells were treated with 0, 0.3, 3, 10 and 30 μM of S1ED^210-236, S1ED^210-233, or S1ED^214-240, plated on FN for 2 hr, fixed and stained with fluorescent phalloidin. Cells from five random images were quantified for cell attachment and cell spreading. (FIG. 6E) HPSE^high cells were treated with 0, 3, 10, and 30 μM of S1ED^210-236, S1ED^210-233, and S1ED^214-240, plated on FN for 2 hr, then fixed, imaged and quantified as in FIG. 6D. (FIG. 6F) Transwell migration assays towards FN (for 16 hr) were performed for HPSE^low or HPSE^high cells in the presence of 30 μM of S1ED^210-236, S1ED^210-233, S1ED^214-240 and Vandetanib. (FIG. 6G) HPSE^low cell lysates were incubated overnight with glutathione beads coated with GST or GST-S1ED in the absence or presence of 30 μM of S1ED^210-236, S1ED^210-233, and S1ED^214-240. Capture of VLA-4 or VEGFR2 was detected by immunoblotting. Sequences in FIG. 6B are 210-240 (SEQ ID NO: 3), 210-236 (SEQ ID NO: 2), 210-233 (SEQ ID NO: 4), 214-240 (SEQ ID NO: 5) and 214-236 (SEQ ID NO: 7).
(§3) CAG cells were washed with CMF-PBS and then lysed for 20 min on ice in lysis buffer. Cell debris was removed by centrifugation at 13000 rpm for 20 min at 4° C. Whole cell lysates were then incubated at 4° C. overnight with either 3 μM GST or 3 μM GST-S1ED in the absence or presence of 1 μM, 3 μM, and 10 μM S1ED^210-240 peptide. GST or GST-S1ED was captured by addition of glutathione Sepharose and the beads were washed with ice-cold lysis buffer and CMF-PBS, prior to addition of SDS-PAGE sample buffer and analyszed by electrophoresis and western blotting as described previously.

CAG myeloma cells [3] = test: Cell spreading / attachment assay of CAG myeloma cells on FN or VCAM-1; type: cell-based, human; remark: listed apart in the source
Procedure: (§4) Nitrocellulose-coated slides were coated for 2 hr at 37° C. with 40 μg/ml FN (kindly provided by Dr. Donna Peters, University of Wisconsin-Madison) or 5 μg/ml recombinant VCAM-1/Fc chimera (R&D Systems) in calcium and magnesium-free PBS (CMF-PBS; 135 mM NaCl, 2.7 mM KCl, 10.2 mM Na2HPO4-7H20 and 1.75 mM KH2PO4, pH7.4). Slides were blocked for 1 hr at 37° C. with RPMI 1640 containing 1% heat-denatured BSA (plating medium). Cells in plating medium were allowed to attach and spread for 2.5 hr at 37° C. Slides were fixed in 4% EM grade paraformaldehyde (Electron Microscopy Sciences) in CMF-PBS and labeled for 30 min in 0.13 μM rhodamine phalloidin (Invitrogen) in CMF-PBS. Coverslips were mounted in non-fluorescing mounting medium (Immumount; Thermo Shandon) and allowed to dry. All images were acquired with a Nikon Microphot FX microscope using a 20× objective (Nikon; Ex 541-551, DM 580, Barrier 590), Photometric CoolSnap ES camera, and version 7.7.3.0 Metamorph© Imaging software (Molecular Devices). All images represent results from triplicate wells and at least three independent experiments.

VEGFR2 = target: T2, VEGFR2 (Homo sapiens, UniProt P35968); test: GST pull down assay: capture of VEGFR2 by GST-S1ED; type: binding; settings: HPSE^low cell lysates; peptide 30 M [sic]
T2 construct: endogenous in cells; host or cells: CAG human myeloma cells (HPSE^low = empty vector; HPSE^high = human HPSE cDNA)
Procedure: as §2, §3

HMEC-1 cells [4] = test: Attachment and spreading of HMEC-1 cells on IIICS; type: cell-based; settings: plated on IIICS; 30 μM peptides, 125 μg/ml SST0001, 10 μg/ml MMP9 blocking antibody
Procedure: FIGS. 8A-H. HPSE mediated the Sdc1-coupled VEGFR2 complex in endothelial cells induces angiogenesis. (FIG. 8A) Lysates from HPSE^low, HPSE^high and HMEC-1 cells are probed by immunoblotting for expression of HPSE. (FIG. 8B) HMEC-1 cells were seeded at equal density and grown in serum-free media for 24 hr in the absence or presence of 125 μg/ml of the HPSE inhibitor SST0001. After 24 hr, conditioned media were harvested, and the level of shed Sdc1 in the conditioned medium from each condition was determined by immunoblotting. (FIG. 8C) HMEC-1 cell lysate was incubated overnight with glutathione beads coated with GST or GST-S1ED. Capture of VLA-4 or VEGFR2 was detected by immunoblotting. (FIG. 8D) HMEC-1 cells were plated on IIICS for 3 hr and double stained for VLA-4 and Sdc1, VEGFR2 and Sdc1, or VLA-4 and VEGFR2. (FIG. 8E) HMEC-1 cells were treated with DMSO, VLA-4 blocking antibody P1H4, β1-integrin blocking antibody mAb13, 10 μg/ml MMP9 blocking antibody, 125 μg/ml HPSE inhibitor SST0001, Vandetanib, VEGFR2 blocking antibody, 30 μM S1ED^210-233 or 30 μM S1ED^214-240 and then plated on IIICS. Images were taken from random field with 200× magnification for counting attached and spread cells. (FIG. 8F) HMEC-1 cells were plated on IIICS in the presence of 10 μM of S1ED^210-236, S1ED^210-233, S1ED^215-240, and S1ED^214-240. […]

HMEC-1 cells [5] = test: In vitro tube formation assay of HMEC-1 cells on Matrigel; type: cell-based; settings: 24 hrs, 10 μM peptides
Procedure: (§5) FIGS. 8A-H. HPSE mediated the Sdc1-coupled VEGFR2 complex in endothelial cells induces angiogenesis. (FIG. 8A) Lysates from HPSE^low, HPSE^high and HMEC-1 cells are probed by immunoblotting for expression of HPSE. (FIG. 8B) HMEC-1 cells were seeded at equal density and grown in serum-free media for 24 hr in the absence or presence of 125 μg/ml of the HPSE inhibitor SST0001. After 24 hr, conditioned media were harvested, and the level of shed Sdc1 in the conditioned medium from each condition was determined by immunoblotting. (FIG. 8C) HMEC-1 cell lysate was incubated overnight with glutathione beads coated with GST or GST-S1ED. Capture of VLA-4 or VEGFR2 was detected by immunoblotting. (FIG. 8D) HMEC-1 cells were plated on IIICS for 3 hr and double stained for VLA-4 and Sdc1, VEGFR2 and Sdc1, or VLA-4 and VEGFR2. (FIG. 8E) HMEC-1 cells were treated with DMSO, VLA-4 blocking antibody P1H4, β1-integrin blocking antibody mAb13, 10 μg/ml MMP9 blocking antibody, 125 μg/ml HPSE inhibitor SST0001, Vandetanib, VEGFR2 blocking antibody, 30 μM S1ED^210-233 or 30 μM S1ED^214-240 and then plated on IIICS. Images were taken from random field with 200× magnification for counting attached and spread cells. (FIG. 8F) HMEC-1 cells were plated on IIICS in the presence of 10 μM of S1ED^210-236, S1ED^210-233, S1ED^215-240, and S1ED^214-240. Lysates were probed on immunoblots with antibodies against pY^1175 VEGFR2 and VEGFR2. (FIG. 8G) Transwell migration assays towards IIICS (for 16 hr) were performed for HMEC-1 cells in the presence of P1H4, SST0001, Anti-MMP9, Vandetanib, S1ED^210-236, S1ED^210-233, and S1ED^214-240. Images were taken from random field with 200× magnification for counting migrated cells. (FIG. 8H) A 96-well plate coated with 50 μl Matrigel containing 100 μg/ml IIICS per well was solidified at 37° C. for 2 hrs. HMEC-1 cells (2.5×10^4 cells/well) were seeded into the plate and cultured in media containing VEGF, SST0001, 10 μM of S1ED^210-236, S1ED^210-233, S1ED^215-240, and S1ED^214-240 for 24 hrs. Enclosed capillary networks of tubes were taken from random field with 200× magnification.

HMEC-1 cells [6] = test: Transwell migration / invasion assay of HMEC-1 cells; type: cell-based; settings: 16 hr
Procedure: as §5, with “HMEC-1 cells (2.5×10^4 cells/well) were seeded into the plate and cultured in media containing VEGF, SST0001, 10 μM of S1ED^210-236, S1ED^210-233, S1ED^215-240, and S1ED^214-240 for 24 hrs. Enclosed capillary networks of tubes were taken from random field with 200× magnification.” left out
The bottom chambers of Transwell filter chambers (8 μm pores; Corning) were coated with 40 μg/ml of FN. […] Cells from at least five random fields were counted.

[7] = tested on: P3x63Ag8 mouse myeloma cells; test: Adhesion of P3x63Ag8 myeloma cells to FN; type: cell-based; settings: 30 uM peptide, 2.5 hr
Procedure: as §1
as §4, with “All images were acquired with a Nikon Microphot FX microscope using a 20× objective (Nikon; Ex 541-551, DM 580, Barrier 590), Photometric CoolSnap ES camera, and version 7.7.3.0 Metamorph© Imaging software (Molecular Devices). All images represent results from triplicate wells and at least three independent experiments.” left out

[8] = on FN, 2 hr, 0, 3, 10 and 30 μM peptide

T2 sequence (P35968 20-1356): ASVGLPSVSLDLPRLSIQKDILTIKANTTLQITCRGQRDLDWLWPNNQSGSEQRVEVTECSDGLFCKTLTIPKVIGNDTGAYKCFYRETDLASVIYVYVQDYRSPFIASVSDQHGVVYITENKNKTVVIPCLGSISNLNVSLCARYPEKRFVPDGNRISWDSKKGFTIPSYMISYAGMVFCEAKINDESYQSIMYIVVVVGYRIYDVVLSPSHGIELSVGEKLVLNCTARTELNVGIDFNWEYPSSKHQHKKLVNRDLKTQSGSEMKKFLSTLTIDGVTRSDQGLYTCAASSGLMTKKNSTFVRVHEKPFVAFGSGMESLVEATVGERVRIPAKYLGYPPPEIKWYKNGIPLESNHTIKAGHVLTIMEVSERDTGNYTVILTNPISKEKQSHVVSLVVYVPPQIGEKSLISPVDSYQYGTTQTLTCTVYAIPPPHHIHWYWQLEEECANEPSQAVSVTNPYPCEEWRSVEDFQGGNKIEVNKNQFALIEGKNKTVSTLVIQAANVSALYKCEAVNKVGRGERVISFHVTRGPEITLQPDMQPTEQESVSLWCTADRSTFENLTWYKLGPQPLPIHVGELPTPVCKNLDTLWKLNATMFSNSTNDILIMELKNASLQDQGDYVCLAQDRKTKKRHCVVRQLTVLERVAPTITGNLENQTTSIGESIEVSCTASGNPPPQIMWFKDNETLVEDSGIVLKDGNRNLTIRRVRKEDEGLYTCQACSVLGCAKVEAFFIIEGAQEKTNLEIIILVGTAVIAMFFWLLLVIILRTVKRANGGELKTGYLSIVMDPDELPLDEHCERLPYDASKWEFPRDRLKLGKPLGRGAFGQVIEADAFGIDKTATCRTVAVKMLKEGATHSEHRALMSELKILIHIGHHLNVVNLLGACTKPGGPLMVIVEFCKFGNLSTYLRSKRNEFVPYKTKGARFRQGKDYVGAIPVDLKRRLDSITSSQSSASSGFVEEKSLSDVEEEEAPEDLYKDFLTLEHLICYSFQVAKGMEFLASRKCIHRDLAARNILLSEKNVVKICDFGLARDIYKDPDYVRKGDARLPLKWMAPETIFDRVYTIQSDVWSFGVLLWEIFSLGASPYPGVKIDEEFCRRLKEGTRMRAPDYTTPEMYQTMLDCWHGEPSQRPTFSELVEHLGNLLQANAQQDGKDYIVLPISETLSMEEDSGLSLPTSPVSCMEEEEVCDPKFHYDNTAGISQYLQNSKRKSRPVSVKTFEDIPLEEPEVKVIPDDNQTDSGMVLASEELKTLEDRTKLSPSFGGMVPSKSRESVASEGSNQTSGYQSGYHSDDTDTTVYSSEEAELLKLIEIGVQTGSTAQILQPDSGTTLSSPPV
T1 sequence (P13612 34-1032): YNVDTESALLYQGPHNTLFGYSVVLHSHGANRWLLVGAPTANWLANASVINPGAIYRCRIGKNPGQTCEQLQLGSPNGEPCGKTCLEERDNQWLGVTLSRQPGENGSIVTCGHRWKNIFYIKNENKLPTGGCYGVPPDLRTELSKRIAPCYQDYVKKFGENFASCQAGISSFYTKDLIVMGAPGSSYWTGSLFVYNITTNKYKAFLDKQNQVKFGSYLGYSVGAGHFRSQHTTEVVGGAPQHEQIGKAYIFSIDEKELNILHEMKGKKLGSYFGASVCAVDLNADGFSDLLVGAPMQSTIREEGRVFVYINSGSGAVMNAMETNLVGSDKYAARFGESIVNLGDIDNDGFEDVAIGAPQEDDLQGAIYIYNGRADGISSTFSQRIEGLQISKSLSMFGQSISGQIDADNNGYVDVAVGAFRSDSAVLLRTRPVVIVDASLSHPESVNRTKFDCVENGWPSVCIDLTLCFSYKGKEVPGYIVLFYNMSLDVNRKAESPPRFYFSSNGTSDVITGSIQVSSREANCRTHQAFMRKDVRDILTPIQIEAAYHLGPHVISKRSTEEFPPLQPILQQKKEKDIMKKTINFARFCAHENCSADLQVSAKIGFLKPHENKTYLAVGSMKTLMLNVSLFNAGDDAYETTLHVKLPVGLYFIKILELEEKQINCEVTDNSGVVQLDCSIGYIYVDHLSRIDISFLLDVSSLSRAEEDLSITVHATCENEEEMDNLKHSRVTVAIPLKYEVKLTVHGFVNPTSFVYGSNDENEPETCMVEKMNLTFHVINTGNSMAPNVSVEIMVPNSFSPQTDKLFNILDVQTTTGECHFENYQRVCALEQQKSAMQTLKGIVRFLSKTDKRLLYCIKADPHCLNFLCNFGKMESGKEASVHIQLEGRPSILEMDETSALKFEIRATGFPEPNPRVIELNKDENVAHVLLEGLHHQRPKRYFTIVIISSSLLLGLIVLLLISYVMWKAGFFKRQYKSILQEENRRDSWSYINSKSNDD
T1 sequence (P05556 21-798): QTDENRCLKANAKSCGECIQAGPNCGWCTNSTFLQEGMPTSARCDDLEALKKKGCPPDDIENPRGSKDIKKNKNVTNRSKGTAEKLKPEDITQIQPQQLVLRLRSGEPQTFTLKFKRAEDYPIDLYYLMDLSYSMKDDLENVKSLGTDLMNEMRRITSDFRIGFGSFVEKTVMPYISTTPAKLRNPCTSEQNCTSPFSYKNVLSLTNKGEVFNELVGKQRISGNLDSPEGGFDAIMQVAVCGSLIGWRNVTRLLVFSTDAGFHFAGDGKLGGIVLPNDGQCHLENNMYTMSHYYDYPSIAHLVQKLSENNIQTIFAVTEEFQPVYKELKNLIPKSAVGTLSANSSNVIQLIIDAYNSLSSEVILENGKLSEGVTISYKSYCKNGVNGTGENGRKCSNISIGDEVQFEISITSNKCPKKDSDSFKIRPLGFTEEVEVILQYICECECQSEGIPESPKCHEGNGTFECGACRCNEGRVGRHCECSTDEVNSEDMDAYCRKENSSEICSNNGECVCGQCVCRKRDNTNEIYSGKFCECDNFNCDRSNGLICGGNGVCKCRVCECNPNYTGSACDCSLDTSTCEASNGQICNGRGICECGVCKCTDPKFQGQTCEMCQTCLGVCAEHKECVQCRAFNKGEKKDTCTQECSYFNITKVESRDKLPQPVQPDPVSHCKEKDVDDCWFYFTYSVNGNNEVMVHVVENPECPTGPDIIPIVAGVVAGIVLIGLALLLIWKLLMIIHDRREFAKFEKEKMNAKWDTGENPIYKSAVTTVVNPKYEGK

O=C(O)Cc1ccc2oc(-c3ccc(NC(=O)/C=C/c4ccc(Br)cc4)c(F)c3)nc2c1 [OGT2115, reference compound]
invasion / migration of P3X cells through FN-coated filters [1]: Cell migration is only observed in the untreated controls

S1ED^214-240: syndecan-1 ectodomain peptide, residues 214-240 (SEQ ID NO: 5) (ETSGENTAVVAVEPDRRNQSPVDQGAT)
HPSE^low cell spreading (CAG myeloma cells [2]; on FN, 2 hr, 0, 0.3, 3, 10 and 30 μM peptide): does not cause cell spreading
HPSE^high cell adhesion (CAG myeloma cells [2]; [8]): has no effect on cell adhesion
HPSE^high cell spreading (CAG myeloma cells [2]; [8]): blocks the spreading of HPSE^high cells
HPSE^low cell adhesion (CAG myeloma cells [2]; on FN, 2 hr, high concentrations (30 μM)): does not cause cell spreading or block adhesion
competition for capture of VLA-4 by GST-S1ED (VLA-4): only competes for capture of VEGFR2
induction of HPSE^low cell spreading by S1ED peptides (CAG myeloma cells [3]; on VCAM-1, 0.3 μM peptide): do not
competition for capture of VEGFR2 by GST-S1ED (VEGFR2): only competes for capture of VEGFR2
VLA-4 dependent spreading of HMEC-1 cells (HMEC-1 cells [4]): prevented
tube formation by HMEC-1 cells (HMEC-1 cells [5]): blocks tube formation
invasion of HMEC-1 cells (HMEC-1 cells [6]): all block invasion

VEGF [reference compound]
induction of HPSE^low cell spreading by VEGF (CAG myeloma cells [2]; 20 ng/ml VEGF): failed to induce spreading of the cells
tube formation by HMEC-1 cells (HMEC-1 cells [5]): not enhanced by VEGF

S1ED^214-236: syndecan-1 ectodomain peptide, residues 214-236 (SEQ ID NO: 7) (ETSGENTAVVAVEPDRRNQSPVD)
invasion / migration of P3X cells through FN-coated filters [1]: blocked by either peptide
adhesion of P3X cells to FN [7]: without effect

B1: HPIII: heparinase III, a bacterial enzyme that completely degrades the HS (protein, UniProt Q59289 25-659, looked up)
Heparin-sulfate lyase: QSSSITRKDFDHINLEYSGLEKVNKAVAAGNYDDAAKALLAYYREKSKAREPDFSNAEKPADIRQPIDKVTREMADKALVHQFQPHKGYGYFDYGKDINWQMWPVKDNEVRWQLHRVKWWQAMALVYHATGDEKYAREWVYQYSDWARKNPLGLSQDNDKFVWRPLEVSDRVQSLPPTFSLFVNSPAFTPAFLMEFLNSYHQQADYLSTHYAEQGNHRLFEAQRNLFAGVSFPEFKDSPRWRQTGISVLNTEIKKQVYADGMQFELSPIYHVAAIDIFLKAYGSAKRVNLEKEFPQSYVQTVENMIMALISISLPDYNTPMFGDSWITDKNFRMAQFASWARVFPANQAIKYFATDGKQGKAPNFLSKALSNAGFYTFRSGWDKNATVMVLKASPPGEFHAQPDNGTFELFIKGRNFTPDAGVFVYSGDEAIMKLRNWYRQTRIHSTLTLDNQNMVITKARQNKWETGNNLDVLTYTNPSYPNLDHQRSVLFINKKYFLVIDRAIGEATGNLGVHWQLKEDSNPVFDKTKNRVYTTYRDGNNLMIQSLNADRTSLNEEEGKVSYVYNKELKRPAFVFEKPKKNAGTQNFVSIVYPYDGQKAPEISIRENKGNDFEKGKLNLTLTINGKQQLVLVP
induction of HPSE^low cell spreading (CAG myeloma cells [3]; heparinase III pre-treatment before plating on FN and VCAM-1): induces spreading of HPSE^low cells comparable to that observed for HPSE^high cells
